The source of these data is patent publication US9260391B2, “Hypoglycemic dihydropyridones” (The Trustees of Columbia University in the City of New York, priority 2008, dated 2016).

“Also recorded” adds a separate entry of the source.

Assay [1] concerns Lewis rats. Kind of assay: Intraperitoneal glucose tolerance test (IPGTT), compounds given i.v. Type of assay: in vivo, rat. Particulars: for area under the curve from glucose tolerance tests: each series a separate experiment; for AUC Blood Glucose IPGTT: 2 mg/kg (2.0 μg/gbw) i.v.; for blood glucose levels around sixty minutes following glucose challenge: i.v. injection at 2 mg/kg body weight. As to the method: All animal studies were reviewed and approved by the Institutional Animal Care and Use Committee (IACUC) at Columbia University's Medical School. All experiments were performed in accordance with the IACUC approved procedures. Normal male Lewis rats (100-400 grams) were obtained from Taconic (Taconic Inc., Germantown, N.Y.) and were housed under conditions of controlled humidity (55±5%), temperature (23±1° C.), and lighting (light on: 06.00-18.00 hours) with free access to standard laboratory rat chow and water. Rats were handled daily to minimize nonspecific stress for more than 7 days before the experiments began. In most experiments, it was necessary to measure blood glucose in fasting animals. For these groups, food was removed at the beginning of the light cycle, 6 hours before glucose levels were measured. Diabetes mellitus was induced by intraperitoneal injection of streptozotocin (Sigma Chemical Co., St. Louis, Mo.) (25 to 50 mg/kg) to animals (100 to 150 grams) that had been fasted 4 hours to enhance the effectiveness of STZ treatment.
The STZ solution was prepared fresh by dissolving it in 0.1 M citrate buffer (pH 5.5) and terminally sterile filtered. Control Lewis age and weight matched rats received a 0.5 ml/kg citrate vehicle alone via intraperitoneal injection. Sixty minutes prior to intraperitoneal glucose tolerance testing (IPGTT), anesthesia of male Lewis rats was induced with isoflurane (3-4% in oxygen) and maintained with 1-2% isoflurane in oxygen. Anaesthetized rats were administered TBZ and other indicated compounds at the indicated dose by intravenous (i.v.) injection using the penile vein. TBZ was dissolved in neat sterile dimethylsulfoxide (DMSO) and diluted (always more than 10 fold) in sterile saline. Rats received injections of vehicle alone (10% DMSO in saline) or reserpine (in saline). Animals recovered fully before receiving IPGTT.
Blood samples were collected from a superficial blood vessel in the tails of the rats following 6 hours of fasting between 12:00 noon and 2:00 p.m. The fasting blood glucose (BG) levels of the rats were measured using an Accu-Check blood glucose monitoring system (Roche Diagnostics, Sommerville, N.J.). Intraperitoneal glucose tolerance tests (IPGTT) were performed in 6 hour fasting un-anaesthetized animals. Briefly, after baseline BG measurements, animals received an intraperitoneal (i.p.) injection of 1 gram glucose/kilogram body weight. To minimize stress during the procedure, rats were handled by the same operator during acclimatization and later during weighing and IPGTT. Blood samples (approximately 30 μl) were collected at baseline and then again 15, 30, 60, 90, and 120 minutes following i.p. glucose administration. BG concentrations were measured immediately on these samples and the remainder processed.
Plasma was immediately separated by centrifugation at 3000×g for 15 minutes and then stored at −20° C. until analysis. Insulin and glucagon concentration measurements in rat plasma were performed by ELISA as per the manufacturer's instructions using kits from Linco Research Inc. (St. Charles, Mo.) and Alpco Diagnostics (Salem, N.H.), respectively. To validate the test, saline injections were performed by the same method. […] The area under the IPGTT glucose concentration×time curve (AUCIPGTT) was calculated by the trapezoidal rule. The area under the insulin or glucagon concentration×time curve (AUC INS or AUC GCG) was calculated in a similar manner.
Anaesthetized rats were administered TBZ, THB, butamol, reserpine, emetine, or HG-6 at a dose of approximately 2-3 mg/kg body weight by intravenous (i.v.) injection using the penile vein. TBZ, THB, butamol, reserpine, emetine, and HG-6 were each separately dissolved in neat sterile dimethylsulfoxide (DMSO) and diluted (always more than 10 fold) in sterile saline. Rats received injections of vehicle alone (10% DMSO in saline) or reserpine (in saline). Animals recovered fully before receiving IPGTT. […]

For assay [2], the system named is Lewis rats. Kind of assay: IPGTT of analogs HG-1 to HG-11, compounds given orally (FIG. 15). The assay is classed as in vivo, rat. To be noted: 2 mg/kg orally; FIG. 15. As to the method:
FIG. 15 is a bar graph showing the results of testing various analogs HG-1 to HG-11 in IPGTT glucose tolerance tests in rats. Results for TBZ, emetine, and olanzapine are also shown. Lewis rats fasted for 6 hours were administered the compounds orally (30 min, 2 mg/kg) followed by intraperitoneal glucose injection (0 min, […]), and plasma glucose levels were monitored for 120 mins. Results are presented as AUC percentage of the vehicle. Error bars indicate SEM (n=5).
Racemic HG-2 and its diastereoisomer HG-1 were evaluated for their ability to improve glucose tolerance by performing intraperitoneal glucose tolerance tests (IPGTT) in rats. IPGTT testing is described above. See also Murthy, R., et al., Eur. J. Nucl. Med. Mol. Imaging, 2008, 35(4), 790-797.

The mark [3] stands for this setting: single dose 2-3 mg/kg body weight i.v., FIG. 12.
[4] abbreviates: 2 mg/kg body weight i.v., Lewis rats 9-11 weeks old, vs vehicle (DMSO).

With `COc1cc2c(cc1OC)C1CC(N)C(CC(C)C)CN1CC2` (centres unmarked) [HG-6, 3-isobutyl-9,10-dimethoxy-2,3,4,6,7,11b-hexahydro-1H-pyrido[2,1-a]isoquinolin-2-amine], in the assay on Lewis rats [1] (setting [3]), the “blood glucose excursion during IPGTT” value is recorded as “consistently reduced the blood glucose excursion” and the “area under the curve from glucose tolerance tests” value is listed as “consistently suppressed the area under the curve; also recorded: depress the area under the curve”.

As to `COC1=CC(=O)N2CCc3cc(OC)c(OC)cc3C2C1` (centres unmarked) [HG-10], in the assay on Lewis rats [2], the “hypoglycemic activity in IPGTT compared with TBZ / HG-3” value was “active but less potent”.

Take `CC(C)(C)NCC(O)c1ccc(O)c(CO)c1` (centres unmarked) [butamol]: in the assay on Lewis rats [1], the “AUC Blood Glucose IPGTT” value was “smaller area under the curve” and the “blood glucose levels around sixty minutes following glucose challenge” value was “returned to control or near normal levels”. The “blood glucose excursion during IPGTT” value with Lewis rats [1] (setting [4]) was “did not reduce the blood glucose excursion; also recorded: does not reduce the blood glucose excursion”.

For the compound `COc1ccc(C2CC(OCC(C)C)=CC(=O)O2)cc1OC` (centres unmarked) [HG-7], the “hypoglycemic activity in IPGTT compared with TBZ / HG-3” value with Lewis rats [2] is “loss of the improved activity”.

Consider `COc1cc2c(cc1OC)C1CC(OCC(C)C)=CC(=O)N1CC2` (centres unmarked) [HG-8], for which the “hypoglycemic activity in IPGTT compared with TBZ / HG-3” value in the assay with Lewis rats [2] is “active but less potent”.

As to `CC[C@H]1CN2CCc3cc(OC)c(OC)cc3[C@@H]2C[C@@H]1C[C@H]1NCCc2cc(OC)c(OC)cc21` [emetine], the “AUC Blood Glucose IPGTT” value with Lewis rats [1] is “smaller area under the curve; also recorded: lower than that for vehicle and butamol treated animals”. For the same compound, the “blood glucose excursion during IPGTT” value in the assay with Lewis rats [1] (setting [4]) is recorded as “reduce the blood glucose excursion”; with Lewis rats [1] (setting [3]) it was “consistently reduced the blood glucose excursion”. For the same compound, the “blood glucose levels around sixty minutes following glucose challenge” value in the assay with Lewis rats [1] was “returned to control or near normal levels”. Moreover, the “area under the curve from glucose tolerance tests” value was “consistently suppressed the area under the curve” in the assay with Lewis rats [1] (setting [3]) and “depress the area under the curve” in the assay with Lewis rats [1] (single dose 2-3 mg/kg body weight i.v., FIG. 12, listed as emitine).

In the case of `COc1ccc(C2CC(=O)CC(=O)N2)cc1OC` (centres unmarked) [HG-5], the “hypoglycemic activity in IPGTT compared with TBZ / HG-3” value in the assay on Lewis rats [2] is listed as “loss of the improved activity”.

For `COC1=CC(=O)OC(c2ccc(OC)c(OC)c2)C1` (centres unmarked) [HG-9], the “hypoglycemic activity in IPGTT compared with TBZ / HG-3” value with Lewis rats [2] is given as “loss of the improved activity”.

On to `COc1ccc2c(c1OC)CN1CCc3cc4c(cc3C1C2)OCO4` (centres unmarked) [THB, tetrahydroberberine], for which, in the assay on Lewis rats [1], the “AUC Blood Glucose IPGTT” value was “smaller area under the curve; also recorded: lower than that for vehicle and butamol treated animals”; the “blood glucose levels around sixty minutes following glucose challenge” value is recorded as “returned to control or near normal levels”. In the assay with Lewis rats [1] (setting [4]), the “blood glucose excursion during IPGTT” value is recorded as “reduce the blood glucose excursion”.

On to `COc1ccc(-c2cc(OCC(C)C)cc(=O)[nH]2)cc1OC` [compound 17], for which the “hypoglycemic activity in IPGTT compared with TBZ / HG-3” value with Lewis rats [2] is “loss of the improved activity”.

In the case of `COc1ccc([C@@H]2C[C@H](O)[C@@H](CC(C)C)CN2)cc1OC` [HG-1], the “hypoglycemic activity in IPGTT compared with TBZ / HG-3” value in the assay on Lewis rats [2] is “less potent than TBZ”.

Regarding `COc1ccc(C2CC(O)C(CC(C)C)CN2)cc1OC` (centres unmarked) [HG-2], in the assay with Lewis rats [2], the “hypoglycemic activity in IPGTT compared with TBZ / HG-3” value is “less potent than TBZ”.

On to `COC(=O)[C@H]1[C@H]2C[C@@H]3c4[nH]c5cc(OC)ccc5c4CCN3C[C@H]2C[C@@H](OC(=O)c2cc(OC)c(OC)c(OC)c2)[C@@H]1OC` [reserpine], for which, in the assay with Lewis rats [1], the “AUC Blood Glucose IPGTT” value was “smaller area under the curve” and the “blood glucose levels around sixty minutes following glucose challenge” value is reported as “returned to control or near normal levels”. Moreover, the “blood glucose excursion during IPGTT” value with Lewis rats [1] (setting [4]) is on record as “reduce the blood glucose excursion”. Further, the “blood glucose and AUC IPGTT relative to untreated controls” value in the assay with Lewis rats [1] (reserpine single concentration 25 μg/gbm, data not shown) is “persistent hyperglycemia and larger AUC IPGTT”.
